Laboratory results published in patent publication US20230257315A1, “AGRICULTURE COMPOSITIONS AND AP[…] MINERAL COMPOUNDS” (Ralco Nutrition, Inc., priority 2012, published 2023).

Experiments:
corn [1] = conditions: 5 g elemental cobalt per acre in-furrow
Excerpt: Various cobalt compounds were applied in-furrow to natural soil with corn seeded, then grown in greenhouse conditions. The cobalt compounds were applied at a rate of 5 g elemental cobalt per acre and compared to an untreated control. The compounds included: cobalt acetate, cobalt carbonate, cobalt gluconate and cobalt sulfate. The trial consisted of four replicates in a randomized complete block design. The plants were harvested after 53 days of growth and measured for plant health characteristics and nutrient uptake.

field corn = assay: Cobalt lactate in-furrow with field corn, greenhouse, nutrient uptake; assay type: in vivo; conditions: 5 g cobalt per acre in-furrow, 53 days of growth
corn [2] = assay: Greenhouse study of absorptivity of cobalt lactate into corn vegetative tissue with and without glyphosate; assay type: in vivo; conditions: foliar spray at V4-V6, day 6
Procedure: A greenhouse study was completed to evaluate the absorptivity of cobalt lactate into corn vegetative tissue when applied with and without glyphosate herbicide. The corn seeds were potted in natural soil and allowed to grow to the V4-V6 growth stage. At this time the plants were treated with foliar sprays of cobalt lactate, and cobalt lactate with glyphosate and ammonium sulfate (AMS). The glyphosate was commercially available and used at the recommended use rate of 1 qt per acre. The AMS was applied as described in Example 6. Six replicate vegetative portions of the plants were sampled at days 1 and 6 after the application and analyzed for cobalt content.
The initial absorption rate was slowed with the addition of glyphosate and AMS to the cobalt lactate solution.

[3] = 53 days of growth, vs untreated control

Compound: CC(=O)[O-].CC(=O)[O-].[Co+2] [cobalt acetate]
- increase in the vegetative N content (corn [1]; [3]): 1.7%
- increase in vegetative K concentration (corn [1]; [3]): 9.3%
- tissue concentration increase Fe (corn [1]; vegetative tissue, 53 days): 20.9%
- tissue concentration increase Mn (corn [1]; vegetative tissue, 53 days): 37.5%
- tissue concentration increase Zn (corn [1]; vegetative tissue, 53 days): 9.4%

Compound: O=C([O-])[O-].[Co+2] [cobalt carbonate]
- increase in root mass (corn [1]; [3]): 6.7%
- vegetative wet weight (corn [1]; [3]): slight increase

Compound: cobalt gluconate
- increase in vegetative K concentration (corn [1]; [3]): 2.3%

Compound: cobalt lactate
- increase of nitrogen within the vegetation over the untreated control (field corn): 4.6%
- increase of potassium within the vegetation over the untreated control (field corn): 7.8%
- nitrogen concentration increase within the root over the untreated control (field corn): 2.2%
- phosphorus concentration increase within the root over the untreated control (field corn): 4.2%
- phosphorus content within the vegetation versus untreated control (field corn): no difference
- potassium concentration increase within the root over the untreated control (field corn): 12.2%
- cobalt concentration in vegetative tissue after 6 days (corn [2]): consistent between the two treatments
